# Reference: patent publication US9771337B2, “Neprilysin inhibitors” (THERAVANCE BIOPHARMA R&D IP, LLC, priority 2011, dated 2017)
# Molecular target: T1, human NEP (Homo sapiens, UniProt P08473)
# T1 construct: purchased R&D Systems, Minneapolis, Minn; 1182-ZN
# Test: In vitro enzyme inhibition assay, inhibitor potency at human NEP
# Assay type: biochemical
# Conditions: pKi values at human NEP; recombinant human NEP, fluorogenic peptide substrate 10 μM, 37° C.
# Description: The inhibitory activities of compounds at human and rat neprilysin (EC 3.4.24.11; NEP) and human angiotensin converting enzyme (ACE) were determined using in vitro assays as described below.
# Recombinant human NEP and recombinant human ACE were obtained commercially (R&D Systems, Minneapolis, Minn., catalog numbers 1182-ZN and 929-ZN, respectively). The fluorogenic peptide substrate Mca-D-Arg-Arg-Leu-Dap-(Dnp)-OH (Medeiros et al. (1997) Braz. J. Med. Biol. Res. 30:1157-62; Anaspec, San Jose, Calif.) and Abz-Phe-Arg-Lys(Dnp)-Pro-OH (Araujo et al. (2000) Biochemistry 39:8519-8525; Bachem, Torrance, Calif.) were used in the NEP and ACE assays respectively.
# The assays were performed in 384-well white opaque plates at 37° C. using the fluorogenic peptide substrates at a concentration of 10 μM in Assay Buffer (NEP: 50 mM HEPES, pH 7.5, 100 mM NaCl, 0.01% polyethylene glycol sorbitan monolaurate (Tween-20), 10 μM ZnSO4; ACE: 50 mM HEPES, pH 7.5, 100 mM NaCl, 0.01% Tween-20, 1 μM ZnSO4).
# Test compounds were assayed over the range of concentrations from […] to 20 μM. Test compounds were added to the enzymes and incubated for 30 minute at 37° C. prior to initiating the reaction by the addition of substrate. Reactions were terminated after 20 minutes of incubation at 37° C. by the addition of glacial acetic acid to a final concentration of 3.6% (v/v).
# Plates were read on a fluorometer with excitation and emission wavelengths set to 320 nm and 405 nm, respectively. Inhibition constants were obtained by nonlinear regression of the data using the equation (GraphPad Software, Inc., San Diego, Calif.): v=v0/[1+(I/K′)] where v is the reaction rate, v0 is the uninhibited reaction rate, I is the inhibitor concentration and K′ is the apparent inhibition constant.
# Compounds of the invention were tested in this assay and found to have pKi values at human NEP as follows.
# T1 sequence (P08473 whole entry): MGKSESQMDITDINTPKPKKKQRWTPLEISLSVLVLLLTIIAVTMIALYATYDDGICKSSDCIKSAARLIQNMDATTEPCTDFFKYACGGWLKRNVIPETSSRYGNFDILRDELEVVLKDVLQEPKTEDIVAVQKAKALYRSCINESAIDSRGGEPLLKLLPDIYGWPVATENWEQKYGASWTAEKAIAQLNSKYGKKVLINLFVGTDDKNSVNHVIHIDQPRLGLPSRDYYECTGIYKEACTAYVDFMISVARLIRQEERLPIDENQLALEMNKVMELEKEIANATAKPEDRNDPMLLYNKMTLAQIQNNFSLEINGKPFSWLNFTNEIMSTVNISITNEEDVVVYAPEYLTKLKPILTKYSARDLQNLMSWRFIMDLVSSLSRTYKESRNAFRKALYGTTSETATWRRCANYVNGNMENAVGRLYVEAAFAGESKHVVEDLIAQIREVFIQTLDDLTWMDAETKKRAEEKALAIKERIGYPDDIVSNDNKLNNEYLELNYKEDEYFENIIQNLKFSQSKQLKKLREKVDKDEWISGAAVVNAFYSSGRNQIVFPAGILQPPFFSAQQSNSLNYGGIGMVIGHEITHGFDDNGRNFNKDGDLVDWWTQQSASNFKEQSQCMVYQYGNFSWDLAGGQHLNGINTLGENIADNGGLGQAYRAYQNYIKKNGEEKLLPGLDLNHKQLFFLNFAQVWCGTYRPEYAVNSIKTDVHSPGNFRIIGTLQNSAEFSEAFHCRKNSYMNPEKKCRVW
row,Structure (SMILES),Ki [nM]
1,"Cc1cc(-c2ccccc2C(=O)O)cc(C(=O)N[C@H](Cc2ccccc2Cl)[C@@H](O)C(=O)O)n1 [Example 2-1, 2-{2-[(1R,2R)-2-Carboxy-1-(2-chloro-benzyl)-2-hydroxy-ethylcarbamoyl]-6-methyl-pyridin-4-yl}-benzoic acid]",≤ 1
2,"Cc1cc(C(=O)N[C@H](Cc2ccccc2Cl)[C@@H](O)C(=O)O)cc(-c2ccccc2C(=O)O)n1 [Example 2-4, 2-{4-[(1R,2R)-2-Carboxy-1-(2-chloro-benzyl)-2-hydroxy-ethylcarbamoyl]-6-methyl-pyridin-2-yl}-benzoic acid]",1.26 to 10
3,"O=C(N[C@H](Cc1ccccc1Cl)[C@@H](O)C(=O)O)c1ccc(-c2ccccc2C(=O)O)nc1 [Example 2-8, 2-{5-[(1R,2R)-2-Carboxy-1-(2-chloro-benzyl)-2-hydroxy-ethylcarbamoyl]-pyridin-2-yl}-benzoic acid]",1.26 to 10
4,"O=C(N[C@H](Cc1ccccc1Cl)[C@@H](O)C(=O)O)c1cc(O)no1 [Example 2-11, (2R,3R)-4-(2-Chloro-phenyl)-2-hydroxy-3-[(3-hydroxy-isoxazole-5-carbonyl)-amino]-butyric acid]",1.26 to 10
5,"O=C(N[C@H](Cc1ccccc1Cl)[C@@H](O)C(=O)O)c1cc(-c2ccccc2Cl)no1 [Example 2-12, (2R,3R)-4-(2-Chloro-phenyl)-3-{[3-(2-chloro-phenyl)-isoxazole-5-carbonyl]-amino}-2-hydroxy-butyric acid]",1.26 to 10
6,"O=C(N[C@H](Cc1ccccc1Cl)[C@@H](O)C(=O)O)c1cc(-c2cccc(Cl)c2)no1 [Example 2-13, (2R,3R)-4-(2-Chloro-phenyl)-3-{[3-(3-chloro-phenyl)-isoxazole-5-carbonyl]-amino}-2-hydroxy-butyric acid]",1.26 to 10
7,"O=C(N[C@H](Cc1ccccc1Cl)[C@@H](O)C(=O)O)c1cc(-c2ccccc2Cl)on1 [Example 2-15, (2R,3R)-4-(2-Chloro-phenyl)-3-{[5-(2-chloro-phenyl)-isoxazole-3-carbonyl]-amino}-2-hydroxy-butyric acid]",1.26 to 10
8,"O=C(N[C@H](Cc1ccccc1Cl)[C@@H](O)C(=O)O)c1cc(=O)n(Cc2ccc(Cl)cc2F)o1 [Example 2-16, (2R,3R)-3-{[2-(4-Chloro-2-fluoro-benzyl)-3-oxo-2,3-dihydro-isoxazole-5-carbonyl]-amino}-4-(2-chloro-phenyl)-2-hydroxy-butyric acid]",1.26 to 10
9,"COc1ccc(Cn2oc(C(=O)N[C@H](Cc3ccccc3Cl)[C@@H](O)C(=O)O)cc2=O)c(F)c1F [Example 2-17, (2R,3R)-4-(2-Chloro-phenyl)-3-{[2-(2,3-difluoro-4-methoxy-benzyl)-3-oxo-2,3-dihydro-isoxazole-5-carbonyl]-amino}-2-hydroxy-butyric acid]",1.26 to 10
10,"O=C(N[C@H](Cc1ccccc1Cl)[C@@H](O)C(=O)O)c1cnc(-c2ccccc2)o1 [Example 2-18, (2R,3R)-4-(2-Chloro-phenyl)-2-hydroxy-3-[(2-phenyl-oxazole-5-carbonyl)-amino]-butyric acid]",12.6 to 100
11,"O=C(N[C@H](Cc1ccccc1Cl)[C@@H](O)C(=O)O)c1cn(O)nn1 [Example 2-21, (2R,3R)-4-(2-Chloro-phenyl)-2-hydroxy-3-[(1-hydroxy-1H-[1,2,3]triazole-4-carbonyl)-amino]-butyric acid]",12.6 to 100
12,"O=C(N[C@H](Cc1ccccc1Cl)[C@@H](O)C(=O)O)c1cc2n(n1)COc1ccccc1-2 [Example 2-24, (2R,3R)-4-(2-Chloro-phenyl)-2-hydroxy-3-[(5-oxa-3,3a-diazacyclopenta[a]naphthalene-2-carbonyl)-amino]-butyric acid]",1.26 to 10
13,"O=C(N[C@H](Cc1ccccc1Cl)[C@@H](O)C(=O)O)c1cc2n(n1)CCOc1ccccc1-2 [Example 2-26, (2R,3R)-4-(2-Chloro-phenyl)-3-[(4,5-dihydro-6-oxa-3,3a-diaza-benzo[e]azulene-2-carbonyl)-amino]-2-hydroxy-butyric acid]",1.26 to 10
14,"O=C(N[C@H](Cc1ccccc1Cl)[C@H](O)C(=O)O)c1cc(F)c2nn[nH]c2c1 [Example 2-27, (2S,3R)-4-(2-Chloro-phenyl)-3-[(7-fluoro-3H-benzotriazole-5-carbonyl)-amino]-2-hydroxy-butyric acid]",1.26 to 10

# The remaining lines, values ahead:
row,Ki [nM],Structure (SMILES)
1,≤ 1,"O=C(N[C@H](Cc1ccccc1Cl)[C@@H](O)C(=O)O)c1ccnc(-c2ccccc2C(=O)O)c1 [Example 2-2, 2-{4-[(1R,2R)-2-Carboxy-1-(2-chloro-benzyl)-2-hydroxy-ethylcarbamoyl]-pyridin-2-yl}-benzoic acid]"
2,1.26 to 10,"O=C(N[C@H](Cc1ccccc1Cl)[C@@H](O)C(=O)O)c1cncc(-c2ccccc2C(=O)O)c1 [Example 2-5, 2-{5-[(1R,2R)-2-Carboxy-1-(2-chloro-benzyl)-2-hydroxy-ethylcarbamoyl]-pyridin-3-yl}-benzoic acid]"
3,≤ 1,"O=C(N[C@H](Cc1ccccc1Cl)[C@@H](O)C(=O)O)c1cnc(O)c(-c2ccccc2C(=O)O)c1 [Example 2-7, 2-{5-[(1R,2R)-2-Carboxy-1-(2-chloro-benzyl)-2-hydroxy-ethylcarbamoyl]-2-hydroxy-pyridin-3-yl}-benzoic acid]"
4,1.26 to 10,"O=C(N[C@H](Cc1ccccc1Cl)[C@@H](O)C(=O)O)c1cnc(-c2ccccc2C(=O)O)c(Cl)c1 [Example 2-9, 2-{5-[(1R,2R)-2-Carboxy-1-(2-chloro-benzyl)-2-hydroxy-ethylcarbamoyl]-3-chloro-pyridin-2-yl}-benzoic acid]"
5,1.26 to 10,"O=C(N[C@H](Cc1ccccc1Cl)[C@@H](O)C(=O)O)c1cnc(-c2ccccc2C(=O)O)c(F)c1 [Example 2-10, 2-{5-[(1R,2R)-2-Carboxy-1-(2-chloro-benzyl)-2-hydroxy-ethylcarbamoyl]-3-fluoro-pyridin-2-yl}-benzoic acid]"
6,1.26 to 10,"O=C(N[C@H](Cc1ccccc1Cl)[C@@H](O)C(=O)O)c1cc(-c2ccc(Cl)cc2)no1 [Example 2-14, (2R,3R)-4-(2-Chloro-phenyl)-3-{[3-(4-chloro-phenyl)-isoxazole-5-carbonyl]-amino}-2-hydroxy-butyric acid]"
7,12.6 to 100,"O=C(N[C@H](Cc1ccccc1Cl)[C@H](O)C(=O)O)c1cnn[nH]1 [Example 2-19, (2S,3R)-4-(2-Chloro-phenyl)-2-hydroxy-3-[(3H-[1,2,3]triazole-4-carbonyl)-amino]-butyric acid]"
8,12.6 to 100,"O=C(N[C@H](Cc1ccccc1Cl)[C@@H](O)C(=O)O)c1cn(Cc2ccccc2)nn1 [Example 2-20, (2R,3R)-3-[(1-Benzyl-1H-[1,2,3]triazole-4-carbonyl)-amino]-4-(2-chloro-phenyl)-2-hydroxy-butyric acid]"
9,12.6 to 100,"Cc1nc(C(=O)N[C@H](Cc2ccccc2Cl)[C@@H](O)C(=O)O)nn1-c1ccc(Cl)cc1 [Example 2-22, (2R,3R)-4-(2-Chloro-phenyl)-3-{[1-(4-chloro-phenyl)-5-methyl-1H-[1,2,4]triazole-3-carbonyl]-amino}-2-hydroxy-butyric acid]"
10,12.6 to 100,"O=C(N[C@H](Cc1ccccc1Cl)[C@@H](O)C(=O)O)c1nn(Cc2ccc(Cl)cc2F)c(=O)[nH]1 [Example 2-23, (2R,3R)-3-{[1-(4-Chloro-2-fluoro-benzyl)-5-oxo-4,5-dihydro-1H-[1,2,4]triazole-3-carbonyl]-amino}-4-(2-chloro-phenyl)-2-hydroxy-butyric acid]"
